Entries after “also recorded” stand apart in the source; their conditions may differ.

The record followed here is patent US20140329753A1, “Angiogenic active lytic peptides” (priority 2013, published 2014).

One assay has as its system angiogenesis. The experiment in a line: Matrigel deposit implant test for angiogenic activity (acceleration or inhibition), FGF1-induced. The class given is in vivo, mice. To be noted: for top score seen in Matrigel deposits: 0 to 4 plus (+) scale, only top level scores of the experiment. Further details: key to top score seen in Matrigel deposits: no + sign would yield a value of 0, as in A in FIG. 13; B in FIG. 13 would yield a score of +++; ++++: 0 to 4 plus (+) scale. An excerpt:
Matrigel deposits were surgically implanted on both sides of 4 mice per treatment yielding a possible 8 samples per treatment. Matrigel is a polymeric substance that appears to be relatively inert in animals and it can serve as a matrix that allows experimentation in vivo on many different difficult-to-study-processes. Prior to implantation, the Matrigel was allowed to imbibe fibroblast growth factor 1 (FGF1). This protein is a powerful inducer of angiogenesis and its presence guarantees that sufficient activity will be observed within the allotted time period of the experiment. Therefore, any inhibition of angiogenesis is likely to be a real phenomenon as the experiment has been set to heavily favor the angiogenic process. Angiogenesis occurs by day 14 and beginning Day 1 (Day 0=day of implantation), mice were injected IP daily with 20 μg of peptide in 100 μl of normal saline. The animals were sacrificed on Day 14, and each Matrigel deposit divided longitudinally and fixed in 10% buffered formalin. One of the halves of each Matrigel deposit was then sectioned. Read-out for this experiment was via histology, with semi-quantitative/qualitative counting of migration of cells and their subsequent assembly of lumenal structures within the Matrigel. This method allows us to observe the full physiologic spectrum of effects, and was useful in delineating trends. […] In FIG. 13, A represents what a section of a Matrigel gel deposit looks like under the microscope soon after surgical implantation. The sample in B is derived from the control at the conclusion of the experiment. Intense activity is present with numerous cells attaching to the surface of the Matrigel. Cells begin to penetrate the deposit and organize into discrete structures that coalesce to form the beginning of tubes twisting and branching in many directions. These venules eventually connect with the system carrying blood and it is possible to see red cells and lymphocytes within them. This process is called “arborization”, derived from the fact that the angiogenic process most closely resembles the growth of roots and branches of trees. All but two of the peptide treatments looked, more or less, like B (all the peptides of Table 1 were tested). In C, a typical sample from the peptide C-1 (SEQ ID NO: 24) treatment is shown. […] Consequently, there were far fewer cells and cellular structures inside of the Matrigel. […] There were large regions of Matrigel that had no visibly associated structures and few single cells, including on the periphery, while other regions had some limited activity.
This system ranks each sample using a 0 to 4 plus (+) scale. Thus, B in FIG. 13 would yield a score of +++ while no + sign would yield a value of 0, as in A in FIG. 13. In Table 3 the data is modified to a numerical form and plotted averages are shown.

Another assay deals with arthritis. The assay is described as follows: Treatment of a patient with arthritis (x-ray of ankle joints). The class given is in vivo. To be noted: 10 mg subcutaneous once a week for one month, then once a month. The method, then: A patient with arthritis was treated by subcutaneous injection of 10 mg once a week for one month and then once a month for maintenance doses. A visible indication of arthritis is calcification of joints.

The subject of assay [1] is Feline Immunodeficiency virus FIV. The experiment in a line: Peptide treatment of a lion infected with FIV (CD4+/CD8+ cell counts). In kind it is in vivo. The note with it: weekly 70 mg I.M injections. From the text:
Nasty is a male lion in North Carolina Zoological Park. He was diagnosed to suffer Feline Immunodeficiency virus FIV. FIV attacks the immune system of cats, much like the human immunodeficiency virus (HIV) attacks the immune system of human beings. FIV infects many cell types in its host, including CD4+ and CD8+T lymphocytes, B lymphocytes, and macrophages. FIV eventually leads to debilitation of the immune system in its feline hosts by the infection and exhaustion of T-helper (CD4+) cells.
Nasty was treated weekly with 70 mg I.M injections of JC15-10N.

The test system of the next assay is tumors. The assay is described as follows: In vivo anti-tumor activity of injected peptide in animal tumor models.
[2] abbreviates: mice, 20 μg peptide IP daily, Day 14 histology.

Regarding FAKKFAKFAF [JC15-10C], the “angiogenic / anti-angiogenic activity in Matrigel deposits (in words)” value (“angiogenic / anti-angiogenic activity” for short) in the assay with angiogenesis (setting [2]) was “inactive”.

Consider FAKKFAKKFK [JC15-10N], for which the “angiogenic / anti-angiogenic activity” value with angiogenesis (setting [2]) is “possesses anti-angiogenic activity”. The “calcification of the ankle joints” value in the assay on arthritis is listed as “disappeared”. In assay [1], the “absolute CD4+ cell counts” value is “stabilized the CD4+ cell counts” and the “absolute CD8+ cell counts” value is listed as “the cell counts began to rise”.

As for FAKKFAKKFKKF [JC15-12N], the “top score seen in Matrigel deposits” value in the assay with angiogenesis is listed as “++++”. Besides, in the assay with angiogenesis (setting [2]), the “angiogenic / anti-angiogenic activity” value was “levels of activity higher than the control; also recorded: cannot exert an anti-angiogenic effect; also recorded: does not inhibit angiogenesis”.

For the sequence FAKKFAKKFKKFAKKFAK [JC15-18N], the “angiogenic / anti-angiogenic activity” value in the assay with angiogenesis (setting [2]) is recorded as “levels of activity higher than the control; also recorded: cannot exert an anti-angiogenic effect”.

FAKKFAKKFKKFAKKFAKFAFAF [JC15]: in the assay with angiogenesis (difference of mean score from Control (2.50)), the “% Diff.” value is listed as 4.00%. In addition, the “angiogenic activity score, Mean” value in the assay on angiogenesis (mean of samples, mice, 20 μg peptide IP daily, Day 14, 0 to 4 plus scale) turned out to be 2.60. Besides, the “angiogenic / anti-angiogenic activity” value with angiogenesis (setting [2]) is listed as “closer to the control; also recorded: cannot exert an anti-angiogenic effect”. For the same sequence, the “angiogenic activity score, Sample 1” value in the assay with angiogenesis (mice, FGF1-imbibed Matrigel, 20 μg peptide IP daily, Day 14 histology, 0 to 4 plus scale, sample 1) came to 3. The “angiogenic activity score, Sample 2” value with angiogenesis (mice, FGF1-imbibed Matrigel, 20 μg peptide IP daily, Day 14 histology, 0 to 4 plus scale, sample 2) was determined as 2. In the assay with angiogenesis (mice, FGF1-imbibed Matrigel, 20 μg peptide IP daily, Day 14 histology, 0 to 4 plus scale, sample 3), the “angiogenic activity score, Sample 3” value stood at 3. Also, the “angiogenic activity score, Sample 4” value in the assay with angiogenesis (mice, FGF1-imbibed Matrigel, 20 μg peptide IP daily, Day 14 histology, 0 to 4 plus scale, sample 4) worked out at 2. Also, in the assay with angiogenesis (mice, FGF1-imbibed Matrigel, 20 μg peptide IP daily, Day 14 histology, 0 to 4 plus scale, sample 5), the “angiogenic activity score, Sample 5” value is on record as 3. Also, the “effect on tumors, peptide injected directly into the tumor” value in the assay on tumors (a few injections over a period of several days) is “tumors are permanently eliminated”. For the same sequence, in the assay on tumors (systemic activity, several animal tumor models, in some cases little activity), the “effect on tumors, peptide injected in a site removed from the tumor” value was “most of the tumors also disappeared”.

In the case of IVRRADRAAVPIVNLKDELL [C-1], the “angiogenic / anti-angiogenic activity” value in the assay with angiogenesis (setting [2]) is “far fewer cellular associations; also recorded: possess anti-angiogenic activity”.

Take KKFKKFAKKFAKFAF [JC15-15C]: the “top score seen in Matrigel deposits” value in the assay on angiogenesis is reported as “++++”. Moreover, the “angiogenic / anti-angiogenic activity” value in the assay on angiogenesis (setting [2]) was “levels of activity higher than the control; also recorded: cannot exert an anti-angiogenic effect”.
